Drawing on ChEMBL document CHEMBL1149476, “Structure-activity relationship study of 9-aminoacridine compounds in scrapie-infected neuroblastoma cells” (Bioorg Med Chem Lett, 2006), this text covers EC50, CC50 and selectivity ratio for 13 compounds.

In general, EC50 refers to the midpoint of the concentration-response curve. Read a low EC50 as higher potency in that assay.

Where only a bound is given, the exact number is not on record here.

Data set [1] deals with ScN2a. As to the kind of experiment: Inhibition of PrPSc accumulation in mouse ScN2a cell line relative to control. The format is functional, cell-based.
The next data set deals with HepG2. As to the kind of experiment: Cytotoxicity against HepG2 cells relative to control. Type of data set: functional. To be noted: Homo sapiens, read-out: LD50 (the source's name).
The subject of a further data set is HEK293. As to the kind of experiment: Cytotoxicity against HEK293 cells relative to control. Particulars: Homo sapiens, read-out: LD50 (the source's name). The format is functional.
The subject of data set [2] is ScN2a. Briefly: Cytotoxicity against mouse ScN2a cell line relative to control. Type of data set: functional. Particulars: read-out: LD50 (the source's name).
Data set [3] can be described thus: Therapeutic index, LD50 for ScN2a cells/EC50 for PrPSc accumulation in ScN2a cells. Type of data set: cell-based. Particulars: mouse, read-out: Ratio LD50/EC50.

Regarding `CCCN(CCC)CCCNc1c2ccc(OC)cc2nc2c(C)cccc12`, it took 1 µM to reach a half-maximal effect in the data set with ScN2a [1] (EC50). The CC50 with HepG2 turned out to be 0.7 µM; in the data set on HEK293, 0.7 µM; in the data set with ScN2a [2] it was 1.4 µM. Also, the selectivity ratio in data set [3] came out at 1.3.

Regarding `CCCN(CC)CCCNc1c2ccc(OC)cc2nc2ccc(C(F)(F)F)cc12`, the 50% effective concentration (EC50) in the data set on ScN2a [1] turned out to be 0.8 µM. The CC50 in the data set with HepG2 is 16.5 µM; in the data set with HEK293 it was 14.6 µM; in the data set on ScN2a [2], 7.6 µM. Besides, the selectivity ratio in data set [3] came out at 9.8.

In turn, `CCCN(CC)CCCNc1c2ccc(OC)cc2nc2ccc(Cl)cc12` yielded an EC50 in the data set on ScN2a [1] of 0.6 µM. Besides, the CC50 in the data set on HepG2 was found to be 6.9 µM; in the data set on HEK293, 4.4 µM; in the data set on ScN2a [2], 8.5 µM. The selectivity ratio in data set [3] turned out to be 13.6.

`CCCN(CCC)CCCNc1c2ccc(OC)cc2nc2ccc(C(F)(F)F)cc12` returned a concentration giving a half-maximal response (EC50) in the data set with ScN2a [1] of 0.4 µM. In addition, the CC50 turned out to be 18.1 µM with HepG2, 16.4 µM in the data set on HEK293 and 11.7 µM in the data set on ScN2a [2]. In addition, the selectivity ratio in data set [3] was determined as 28.6.

`CCCN(CCCNc1c2ccc(OC)cc2nc2c(C)cccc12)CC(C)C` returned an EC50 with ScN2a [1] of 1 µM. Also, the values for the CC50 in the data set on HepG2, in the data set on HEK293 and in the data set with ScN2a [2] were 0.7 µM, 1.4 µM and 1.3 µM, respectively. The selectivity ratio in data set [3] worked out at 1.3.

Take `CCN(CCCNc1c2ccc(OC)cc2nc2ccc(C(F)(F)F)cc12)Cc1ccccc1O`: the half-maximal effective concentration (EC50) with ScN2a [1] was determined as 3.9 µM. Also, the CC50 in the data set on HepG2 was over 25 µM; in the data set with HEK293, 23.1 µM; with ScN2a [2], 13 µM. In addition, the selectivity ratio in data set [3] is 2.6.

In the data set with ScN2a [1], `CCCN(CCC)CCCNc1c2ccc(OC)cc2nc2ccc(Cl)cc12` displayed a concentration for a half-maximal effect (EC50) of 0.4 µM. Also, the results for the CC50 with HepG2, in the data set on HEK293 and with ScN2a [2] were 13.8 µM, 10.7 µM and 6 µM, respectively. Besides, the selectivity ratio in data set [3] came to 15.8.

For `CCCN(CCCNc1c2ccc(OC)cc2nc2ccc(C(F)(F)F)cc12)Cc1ccccc1`, the EC50 with ScN2a [1] stood at 7.1 µM. In addition, the figures for the CC50 with HepG2, in the data set with HEK293 and in the data set on ScN2a [2] were over 25 µM, 22.4 µM and 18.3 µM, respectively. In addition, the selectivity ratio in data set [3] was 2.6.

In the case of `CCCN(CC)CCCNc1c2ccc(OC)cc2nc2c(C)c(F)ccc12`, the CC50 in the data set with HepG2 amounted to 0.7 µM; in the data set on HEK293, 0.8 µM; with ScN2a [2], 0.6 µM.

Take `CCCN(CCC)CCCNc1c2ccc(Cl)cc2nc2ccc(OC)cc12`: the half-maximal effective concentration (EC50) with ScN2a [1] worked out at 0.6 µM. Moreover, the CC50 with ScN2a [2] stood at 6.4 µM. In addition, in data set [3], the selectivity ratio amounted to 10.9.

`CCN(CC)CCCC(C)Nc1c2ccc(OC)cc2nc2ccc(Cl)cc12` (stereo unspecified) showed a 50% effective concentration (EC50) in the data set on ScN2a [1] of 0.7 µM. Also, the CC50 in the data set on ScN2a [2] worked out at 17.4 µM. Besides, the selectivity ratio in data set [3] amounted to 23.3.

For `CCN(CCCNc1c2ccc(OC)cc2nc2c(C)c(F)ccc12)CC(C)C`, the CC50 was found to be 0.6 µM in the data set with HepG2, 0.7 µM in the data set with HEK293 and 0.6 µM in the data set on ScN2a [2].

Take `CCN(CC)CCCC(C)Nc1c2ccc(Cl)cc2nc2ccc(OC)cc12` (stereo unspecified) [QUINACRINE]: in the data set with ScN2a [1], the response was half-maximal at 0.5 µM (EC50). The CC50 was 7.9 µM in the data set on HepG2, 7.6 µM in the data set with HEK293 and 9.6 µM with ScN2a [2].
